Assay results reported in patent US8420668B2, “1-(2H)-isoquinolone derivative” (Chugai Seiyaku Kabushiki Kaisha, priority 2008, dated 2013).
Values after ≈ are worked out from the molar mass of the structure shown.

Key:
[1] = Measurement of conversion rate in human plasma; format: in vitro ADME; conditions: 37° C., 50 μM
Procedure: The conversion rate of exemplary compounds of the present invention in human plasma was measured. The measurement of conversion rate in human plasma was conducted using human plasma purchased from Rockland Immunochemicals, Inc. (Pennsylvania, the United States of America). Each compound was incubated at 37° C. for 6 hours in plasma at a concentration of 50 μM, subjected to deproteinization treatment, and then quantified by HPLC using an internal standard method. The conversion rate was calculated as a residual rate after 6 hours. Comparative compounds 1 and 2 described above were also tested as test compounds.

[2] = Measurement of solubility in physiological saline; format: physicochemical; conditions: stirred 2 hours, filtered, HPLC
Procedure: The solubility of exemplary compounds of the present invention was measured.
The measurement was carried out using an internal standard method, and a 4-point calibration curve (4000 μM, 1000 μM, 250 μM, and 31.3 μM, or 1000 μM, 250 μM, 62.5 μM, and 7.8 μM) was prepared. A sample solution (100% DMSO) was lyophilized, and each solution was added. Then, the mixture was stirred for 2 hours, and the sample dissolved in the solution was filtered. Thereafter, the filtrate was measured by HPLC (HPLC). Physiological saline was used as a solution. Note that among the test compounds used, comparative compound 1 was the compound of Example 3-26 described in International publication No. WO06/090743 (phosphoric acid dibenzyl ester(R)-2-oxo-3-[1-oxo-3-(2-trifluoromethylphenyl)-1,2-dihydroisoquinolin-7-yl]-oxazolidin-5-ylmethyl ester). Further, the optical isomer of comparative compound 1, i.e., phosphoric acid dibenzyl ester(S)-2-oxo-3-[1-oxo-3-(2-trifluoromethylphenyl)-1,2-dihydroisoquinolin-7-yl]-oxazolidin-5-ylmethyl ester, was used as comparative compound 2. An active substance of the compound of the present invention, i.e., 7-((S)-5-hydroxymethyl-2-oxooxazolidin-3-yl)-3-(2-trifluoromethylphenyl)-2H-isoquinolin-1-one, was used as comparative compound 3. Another active substance of the compound of the present invention, i.e., 7-((R)-5-hydroxymethyl-2-oxooxazolidin-3-yl)-3-(2-trifluoromethylphenyl)-2H-isoquinolin-1-one, was used as comparative compound 4.

[3] = system: human colon cancer cell line HCT116; assay: Measurement of antitumor effect in HCT116 tumor-bearing nude mice; format: in vivo, BALB/c nude mouse; conditions: tail vein, administered twice (day 0 and day 7), HCT116 subcutaneous xenograft, vs control group 14 days after start
Procedure: The antitumor effect of exemplary compounds of the present invention was measured.
The antitumor effect was determined using tumor-bearing mice prepared by subcutaneously implanting a human colon cancer cell line HCT116 obtained from American Type Culture Collection (Virginia, the United States of America) into flank of each BALB/c nude mouse purchased from Charles River, Japan. The purchased nude mice were quarantined for 1 week, and thereafter about 5×10^6 HCT116 cells were subcutaneously implanted into flank of each mouse. The mice were subjected to the experiment at the time when their tumor grew to a size of about 200 mm^3.
Each compound was dissolved in an administration solution, and the solution was administered to the tail vein at 0.1 mL per 10 g of body weight of each mouse. Administration was carried out twice in total; on the initiation day of administration and 7 days after the initiation day. The antitumor effect was calculated as tumor growth inhibition by comparing with tumor growth in the administration solution-administered control group 14 days after the initiation day of administration.

[4] = saline or isotonic, thermodynamic from solid

solubility at 2 h [2, 4] [µM]	Compound	Residual rate (after 6 hrs., %) [1] [%]	also measured
< 7.8	O=C1O[C@@H](COP(=O)(OCc2ccccc2)OCc2ccccc2)CN1c1ccc2cc(-c3ccccc3C(F)(F)F)[nH]c(=O)c2c1 [Comparative compound 1, phosphoric acid dibenzyl ester(R)-2-oxo-3-[1-oxo-3-(2-trifluoromethylphenyl)-1,2-dihydroisoquinolin-7-yl]-oxazolidin-5-ylmethyl ester, reference compound]	99.5	remained in human plasma after 6 hours (in words) [1]: almost all
< 7.8	O=C1O[C@H](COP(=O)(OCc2ccccc2)OCc2ccccc2)CN1c1ccc2cc(-c3ccccc3C(F)(F)F)[nH]c(=O)c2c1 [Comparative compound 2, phosphoric acid dibenzyl ester(S)-2-oxo-3-[1-oxo-3-(2-trifluoromethylphenyl)-1,2-dihydroisoquinolin-7-yl]-oxazolidin-5-ylmethyl ester, reference compound]	95.5	
179 (≈ 72.4 µg/mL)	O=C1O[C@H](CO)CN1c1ccc2cc(-c3ccccc3C(F)(F)F)[nH]c(=O)c2c1 [Comparative compound 3, 7-((S)-5-hydroxymethyl-2-oxooxazolidin-3-yl)-3-(2-trifluoromethylphenyl)-2H-isoquinolin-1-one]		
193 (≈ 78 µg/mL)	O=C1O[C@@H](CO)CN1c1ccc2cc(-c3ccccc3C(F)(F)F)[nH]c(=O)c2c1 [Comparative compound 4, 7-((R)-5-hydroxymethyl-2-oxooxazolidin-3-yl)-3-(2-trifluoromethylphenyl)-2H-isoquinolin-1-one]		

More lines, now with the values behind:

Compound	solubility at 2 h [2, 4] [µM]	Residual rate (after 6 hrs., %) [1] [%]	also measured
O=C1O[C@H](COP(=O)(O)O)CN1c1ccc2cc(-c3ccccc3C(F)(F)F)[nH]c(=O)c2c1 [Example 1, Mono-{(S)-2-oxo-3-[1-oxo-3-(2-trifluoromethyl-phenyl)-1,2-dihydro-isoquinolin-7-yl]-oxazolidin-5-ylmethyl}-phosphoric acid]	3530 (≈ 1710 µg/mL)	35.4	
O=C1O[C@H](COP(=O)([O-])[O-])CN1c1ccc2cc(-c3ccccc3C(F)(F)F)[nH]c(=O)c2c1.[Na+].[Na+] [Example 2, Mono-{(S)-2-oxo-3-[1-oxo-3-(2-trifluoromethyl-phenyl)-1,2-dihydro-isoquinolin-7-yl]-oxazolidin-5-ylmethyl}-disodium phosphate]		29.4	TGI on day 14 (%) ([3]; 60 mg/kg): 85%; remained in human plasma after 6 hours (in words) [1]: almost all; solubility at 2 h [2]: 3527 µM
O=C1O[C@@H](COP(=O)(O)O)CN1c1ccc2cc(-c3ccccc3C(F)(F)F)[nH]c(=O)c2c1 [Example 6, Mono-{(R)-2-oxo-3-[1-oxo-3-(2-trifluoromethyl-phenyl)-1,2-dihydro-isoquinolin-7-yl]-oxazolidin-5-ylmethyl}-phosphoric acid]	> 4000		
O=C1O[C@@H](COP(=O)(O)O)CN1c1ccc2cc(-c3ccccc3C(F)(F)F)[nH]c(=O)c2c1 [Example 7, Mono-{(R)-2-oxo-3-[1-oxo-3-(2-trifluoromethyl-phenyl)-1,2-dihydro-isoquinolin-7-yl]-oxazolidin-5-ylmethyl}-disodium phosphate]		33.4	TGI on day 14 (%) ([3]; 80 mg/kg): 30%
